Columns and labels:
[1] = molecular target: T1, recombinant human FLAP protein (Homo sapiens, UniProt P20292); experiment: FLAP binding assay (Scintillation Proximity Assay, displacement of [125I]L-691,831); conditions: read-out: FLAP SPA IC50
T1 construct: made in house; host or cells: Sf9 insect cells (100,000xg membrane fraction used)
T1 sequence (P20292 1-161): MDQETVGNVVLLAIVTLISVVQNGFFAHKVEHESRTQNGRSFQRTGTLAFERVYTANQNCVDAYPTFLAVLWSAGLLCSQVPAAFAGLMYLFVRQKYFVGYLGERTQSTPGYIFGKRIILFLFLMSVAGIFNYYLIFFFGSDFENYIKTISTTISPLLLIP
Method: Compounds are assessed for the ability to bind to FLAP in a binding assay that measures compound-specific displacement of an iodinated (^125I) FLAP inhibitor via a Scintillation Proximity Assay format (adapted from S. Charleson et al., Mol. Pharmacol., 1992, 41, 873-879).
Cell pellets produced from sf9 insect cells expressing recombinant human FLAP protein are resuspended in buffer A [15 mM Tris-HCl (pH 7.5), 2 mM MgCl2, 0.3 mM EDTA, 1 mM PMSF]. The cells are lysed with a Dounce homogenizer and the material is centrifuged at 10,000×g for 10 minutes. The supernatant is then collected and centrifuged at 100,000×g for 60 minutes. To prepare membrane protein for an assay, an aliquot of the 100,000×g pellet is resuspended in 1 ml of buffer A, Dounce homogenized, and finally subjected to polytron mixing (30 seconds). Membrane protein (25 μl, 5 μg) is mixed with WGA SPA beads (Amersham) and stirred for 1 h. […] (final concentrations: beads, 200 μg/well; protein, 5 μg/well; [^125I] probe, 0.08 nM/well (17 nCi/well). The plates are shaken for 2 h before reading on a Microbeta plate reader. Non-specific binding is determined by the addition of 10 μM cold L-691,831 compound.

[2] = system: synthesis of LTB4 in human whole blood; experiment: human whole blood LTB4 production inhibition assay; assay type: cell-based; conditions: calcimycin stimulated, read-out: hWB LTB4 IC50
Method: Compounds are additionally tested in a human whole blood assay to determine their ability to inhibit the synthesis of LTB4 in a cellular system. Compounds are combined with heparinized human whole blood and incubated for 15 minutes at 37° C. Calcimycin (20 μM final, prepared in phosphate-buffered saline, pH 7.4) is then added and the mixture is incubated for another 30 minutes at 37° C. The samples are centrifuged for 5 min at low speed (1500×g) and the plasma layer is removed. Plasma LTB4 concentrations are then measured using an antibody-based homogenous time-resolved fluorescence method (CisBio, Bedford, Mass.).

| Compound | IC50 [1] [µM] | IC50 [2] [µM] |
| --- | --- | --- |
| CC(O)Cn1cc(-c2nc(C(C)(c3ccc(-c4cnc(N)nc4)nc3)C(C)C)no2)cn1 (stereo not shown) [Example 1, 1-[4-(3-{2-[6-(2-aminopyrimidin-5-yl)pyridin-3-yl]-3-methylbutan-2-yl}-1,2,4-oxadiazol-5-yl)-1H-pyrazol-1-yl]propan-2-ol] | 0.0083 | 0.054 |
| CC(C)C(C)(c1ccc(-c2cnc(N)nc2)nc1)c1noc(-c2cnn(CC(C)(C)O)c2)n1 (stereo not shown) [Example 2, 1-[4-(3-{2-[6-(2-aminopyrimidin-5-yl)pyridin-3-yl]-3-methylbutan-2-yl}-1,2,4-oxadiazol-5-yl)-1H-pyrazol-1-yl]-2-methylpropan-2-ol] | 0.01 | 0.074 |
| CC(C)C(C)(c1ccc(-c2cnc(N)nc2)nc1)c1noc(-c2cnn(C)c2)n1 (stereo not shown) [Example 3, 5-(5-{3-methyl-2-[5-(1-methyl-1H-pyrazol-4-yl)-1,2,4-oxadiazol-3-yl]butan-2-yl}pyridin-2-yl)pyrimidin-2-amine] | 0.0047 | 0.068 |
| CC(C)[C@](C)(c1ccc(-c2cnc(N)nc2)nc1)c1noc(-c2cnn(C)c2)n1 [Example 4, 5-(5-{(2R)-3-methyl-2-[5-(1-methyl-1H-pyrazol-4-yl)-1,2,4-oxadiazol-3-yl]butan-2-yl}pyridin-2-yl)pyrimidin-2-amine] | 0.003 | 0.02 |
| CC(C)[C@@](C)(c1ccc(-c2cnc(N)nc2)nc1)c1noc(-c2cnn(C)c2)n1 [Example 5, 5-(5-{(2S)-3-methyl-2-[5-(1-methyl-1H-pyrazol-4-yl)-1,2,4-oxadiazol-3-yl]butan-2-yl}pyridin-2-yl)pyrimidin-2-amine] | 0.0762 | 0.75 |
| CC(C)C(C)(c1ccc(-c2cnc(N)nc2)nc1)c1noc(-c2cnn(C(C)(C)CO)c2)n1 (stereo not shown) [Example 6, 2-[4-(3-{2-[6-(2-aminopyrimidin-5-yl)pyridin-3-yl]-3-methylbutan-2-yl}-1,2,4-oxadiazol-5-yl)-1H-pyrazol-1-yl]-2-methylpropan-1-ol] | 0.0086 | 0.22 |
| CC(C)C(C)(c1ccc(-c2cnc(N)nc2)nc1)c1noc(-c2cnn(CC(=O)N(C)C)c2)n1 (stereo not shown) [Example 7, 2-[4-(3-{2-[6-(2-aminopyrimidin-5-yl)pyridin-3-yl]-3-methylbutan-2-yl}-1,2,4-oxadiazol-5-yl)-1H-pyrazol-1-yl]-N,N-dimethylacetamide] | 0.0144 | 0.18 |
| COCCn1cc(-c2nc(C(C)(c3ccc(-c4cnc(N)nc4)nc3)C(C)C)no2)cn1 (stereo not shown) [Example 8, 5-[5-(2-{5-[1-(2-methoxyethyl)-1H-pyrazol-4-yl]-1,2,4-oxadiazol-3-yl}-3-methylbutan-2-yl)pyridin-2-yl]pyrimidin-2-amine] | 0.0063 | 0.068 |
| CC(C)C(C)(c1ccc(-c2cnc(N)nc2)nc1)c1noc(-c2cnn(C3COC3)c2)n1 (stereo not shown) [Example 9, 5-[5-(3-methyl-2-{5-[1-(oxetan-3-yl)-1H-pyrazol-4-yl]-1,2,4-oxadiazol-3-yl}butan-2-yl)pyridin-2-yl]pyrimidin-2-amine] | 0.0059 | 0.025 |
| COCCNc1cnc(-c2nc(C(C)(c3ccc(-c4cnc(N)nc4)nc3)C(C)C)no2)cn1 (stereo not shown) [Example 10, 5-{5-[2-(5-{5-[(2-methoxyethyl)amino]pyrazin-2-yl}-1,2,4-oxadiazol-3-yl)-3-methylbutan-2-yl]pyridin-2-yl}pyrimidin-2-amine] | 0.0049 | 0.06 |
| CC(C)C(C)(c1ccc(-c2cnc(N)nc2)nc1)c1noc(-c2cnn3cccnc23)n1 (stereo not shown) [Example 11, 5-(5-{3-methyl-2-[5-(pyrazolo[1,5-a]pyrimidin-3-yl)-1,2,4-oxadiazol-3-yl]butan-2-yl}pyridin-2-yl)pyrimidin-2-amine] | 0.0029 | 0.04 |
| CCNc1cnc(-c2nc(C(C)(c3ccc(-c4cnc(N)nc4)nc3)C(C)C)no2)cn1 (stereo not shown) [Example 12, 5-[5-(2-{5-[5-(ethylamino)pyrazin-2-yl]-1,2,4-oxadiazol-3-yl}-3-methylbutan-2-yl)pyridin-2-yl]pyrimidin-2-amine] | 0.0036 | 0.055 |
| CC(C)C(C)(c1ccc(-c2cnc(N)nc2)nc1)c1noc(-c2cnc(N3CCNCC3)cn2)n1 (stereo not shown) [Example 13, 5-[5-(3-methyl-2-{5-[5-(piperazin-1-yl)pyrazin-2-yl]-1,2,4-oxadiazol-3-yl}butan-2-yl)pyridin-2-yl]pyrimidin-2-amine] | 0.0109 | 0.49 |
| CC(C)C(C)(c1ccc(-c2cnc(N)nc2)nc1)c1noc(-c2cnn(CC(F)F)c2)n1 (stereo not shown) [Example 14, 5-[5-(2-{5-[1-(2,2-difluoroethyl)-1H-pyrazol-4-yl]-1,2,4-oxadiazol-3-yl}-3-methylbutan-2-yl)pyridin-2-yl]pyrimidin-2-amine] | 0.0065 | 0.045 |
| CNc1cnc(-c2nc(C(C)(c3ccc(-c4cnc(N)nc4)nc3)C(C)C)no2)cn1 (stereo not shown) [Example 15, 5-[5-(3-methyl-2-{5-[5-(methylamino)pyrazin-2-yl]-1,2,4-oxadiazol-3-yl}butan-2-yl)pyridin-2-yl]pyrimidin-2-amine] | 0.0023 | 0.075 |
| CC(C)Nc1cnc(-c2nc(C(C)(c3ccc(-c4cnc(N)nc4)nc3)C(C)C)no2)cn1 (stereo not shown) [Example 16, 5-[5-(3-methyl-2-{5-[5-(propan-2-ylamino)pyrazin-2-yl]-1,2,4-oxadiazol-3-yl}butan-2-yl)pyridin-2-yl]pyrimidin-2-amine] | 0.0023 | 0.065 |
| CC(C)C(C)(c1ccc(-c2cnc(N)nc2)nc1)c1noc(-c2cnn(CCF)c2)n1 (stereo not shown) [Example 17, 5-[5-(2-{5-[1-(2-fluoroethyl)-1H-pyrazol-4-yl]-1,2,4-oxadiazol-3-yl}-3-methylbutan-2-yl)pyridin-2-yl]pyrimidin-2-amine] | 0.0045 | 0.053 |
| COCCN(C)c1cnc(-c2nc(C(C)(c3ccc(-c4cnc(N)nc4)nc3)C(C)C)no2)cn1 (stereo not shown) [Example 18, 5-{5-[2-(5-{5-[(2-methoxyethyl)(methyl)amino]pyrazin-2-yl}-1,2,4-oxadiazol-3-yl)-3-methylbutan-2-yl]pyridin-2-yl}pyrimidin-2-amine] | 0.0027 | 0.083 |
| CC(C)C(C)(c1ccc(-c2cnc(N)nc2)nc1)c1noc(-c2cnc(NC[C@@H](C)O)cn2)n1 (stereo partly drawn) [Example 19, (2R)-1-{[5-(3-{2-[6-(2-aminopyrimidin-5-yl)pyridin-3-yl]-3-methylbutan-2-yl}-1,2,4-oxadiazol-5-yl)pyrazin-2-yl]amino}propan-2-ol] | 0.0048 | 0.14 |
| CC(C)C(C)(c1ccc(-c2cnc(N)nc2)nc1)c1noc(-c2cnc(NC(C)(C)CO)cn2)n1 (stereo not shown) [Example 20, 2-{[5-(3-{2-[6-(2-aminopyrimidin-5-yl)pyridin-3-yl]-3-methylbutan-2-yl}-1,2,4-oxadiazol-5-yl)pyrazin-2-yl]amino}-2-methylpropan-1-ol] | 0.004 | 0.14 |
| CC(C)C(C)(c1ccc(-c2cnc(N)nc2)nc1)c1noc(-c2cn(C)cn2)n1 (stereo not shown) [Example 21, 5-(5-{3-methyl-2-[5-(1-methyl-1H-imidazol-4-yl)-1,2,4-oxadiazol-3-yl]butan-2-yl}pyridin-2-yl)pyrimidin-2-amine] | 0.0512 | 0.57 |
| CC(C)C(C)(c1ccc(-c2cnc(N)nc2)nc1)c1noc(-c2cnc(NC[C@H](C)O)cn2)n1 (stereo partly drawn) [Example 22, (2S)-1-{[5-(3-{2-[6-(2-aminopyrimidin-5-yl)pyridin-3-yl]-3-methylbutan-2-yl}-1,2,4-oxadiazol-5-yl)pyrazin-2-yl]amino}propan-2-ol] | 0.0036 | 0.14 |
| COCCn1cc(-c2nc([C@@](C)(c3ccc(-c4cnc(N)nc4)nc3)C(C)C)no2)cn1 [Example 23, 5-{5-[(2R)-2-{5-[1-(2-methoxyethyl)-1H-pyrazol-4-yl]-1,2,4-oxadiazol-3-yl}-3-methylbutan-2-yl]pyridin-2-yl}pyrimidin-2-amine] | 0.0039 | 0.039 |
| COCCn1cc(-c2nc([C@](C)(c3ccc(-c4cnc(N)nc4)nc3)C(C)C)no2)cn1 [Example 24, 5-{5-[(2S)-2-{5-[1-(2-methoxyethyl)-1H-pyrazol-4-yl]-1,2,4-oxadiazol-3-yl}-3-methylbutan-2-yl]pyridin-2-yl}pyrimidin-2-amine] | 0.17 | 0.99 |
| CNc1ncc(-c2ccc([C@](C)(c3noc(-c4cnn(CC(=O)N(C)C)c4)n3)C3CC3)cn2)cn1 [Example 176, 2-[4-(3-{(R)-1-Cyclopropyl-1-[6-(2-methylamino-pyrimidin-5-yl)-pyridin-3-yl]-ethyl}-[1,2,4]oxadiazol-5-yl)-pyrazol-1-yl]-N,N-dimethyl-acetamide] |  | 0.267 |

From patent US8580825B2, “Oxadiazole inhibitors of leukotriene production” (Boehringer Ingelheim International GmbH, priority 2010, dated 2013)
